In patent US12685743B2, “Methods and compositions for treating and diagnosing pancreatic cancers” (New York University, priority 2019, dated 2026):

Experiments:
[1] = system: oncogenic progression in KC mice (p48cre;LSL-KrasG12D); test: KC mouse model of slowly progressive PDA, mycobiome ablation; format: in vivo; conditions: oral amphotericin B vs vehicle, killed at three months old (FIG. 3A)
Description: (§1) Littermates were used as controls.

[2] = system: orthotopic tumors from KPC mice; test: Orthotopic KPC tumors in MBL-null mice; format: in vivo, mouse; conditions: amphotericin B vs vehicle, three weeks (FIG. 8B)
Description: as §1

[3] = system: orthotopic PDA tumors from KPC mice; conditions: for progression of orthotopic PDA (tumor weight): wild-type mice, oral antifungal vs vehicle, killed three weeks after tumor implantation (FIG. 3B, 7A)
KPC tumor cells = test: XTT proliferation assay of KPC tumor cells; format: cell-based; conditions: recombinant mouse C3a 5 nM vs vehicle, serial time points (FIG. 8F)
Description: as §1

[4] = system: orthotopic tumors from KPC mice; test: Intratumoral injection of recombinant C3a into orthotopic KPC tumors; format: in vivo, mouse; conditions: single intratumoral injection 40 μg/kg on day 14, tumors collected day 21 (FIG. 4D)
Description: as §1

**Q.** With C[C@@H]1[C@H](O)[C@@H](C)/C=C/C=C/C=C/C=C/C=C/C=C/C=C/[C@H](O[C@@H]2O[C@H](C)[C@@H](O)[C@H](N)[C@@H]2O)C[C@@H]2O[C@](O)(C[C@@H](O)C[C@@H](O)[C@H](O)CC[C@@H](O)C[C@@H](O)CC(=O)O[C@H]1C)C[C@H](O)[C@H]2C(=O)O [amphotericin B] as the molecule, how does the “oncogenic progression (pancreatic weight, acinar area, ADM/PanIN lesions, fibrosis)” value [1] read?
**A.** protected the mice against oncogenic progression

**Q.** And the “protection against tumor growth in MBL-null mice (tumor weight)” value [2]?
**A.** did not provide protection against tumor growth

**Q.** And the “effect on gemcitabine chemotherapy (tumor weight)” value ([3]; wild-type mice with orthotopic PDA tumors, amphotericin B combined with gemcitabine, three weeks of treatment (FIG. 3C))?
**A.** potentiated the effect of chemotherapy based on gemcitabine

**Q.** And the “progression of orthotopic PDA (tumor weight)” value [3]?
**A.** protective against progression

**Q.** How did the “progression of orthotopic PDA (tumor weight)” value [3] turn out when OC(Cn1cncn1)(Cn1cncn1)c1ccc(F)cc1F [fluconazole] was run?
**A.** protective against progression

**Q.** What does the source list for “recombinant C3a: recombinant mouse complement fragment C3a (R&D)”?
**A.** proliferation of KPC cells in vitro (KPC tumor cells): accelerated the proliferation of KPC cells; growth of KPC tumors in vivo (change in tumor volume) [4]: accelerated
